Test results published in ChEMBL document CHEMBL3885881, “DrugMatrix”.

Species on record: Rattus norvegicus
Assay: DrugMatrix - Regimen: Daily Repeat
Assay type: toxicity, organism-based, Sprague-Dawley
Design: regimen Daily Repeat, gender Male, age 6-8 weeks
Conditions: in vivo, po, route oral GAVAGE, vehicle .5 % CMC; for ABSOLUTE BASOPHIL / ABSOLUTE EOSINOPHIL / ABSOLUTE LYMPHOCYTE / ABSOLUTE MONOCYTE / ABSOLUTE SEGMENTED NEUTROPHIL / BASOPHIL / EOSINOPHIL / ERYTHROCYTE COUNT / HEMATOCRIT / HEMOGLOBIN / LEUKOCYTE COUNT / LYMPHOCYTE / MEAN CORPUSCULAR HEMOGLOBIN / MEAN CORPUSCULAR HEMOGLOBIN CONCENTRATION / MEAN CORPUSCULAR VOLUME / MONOCYTE / NEUTROPHIL / NUCLEATED RED BLOOD CELLS / PLATELET COUNT: tissue Blood; for ALANINE AMINOTRANSFERASE / ALBUMIN / ALKALINE PHOSPHATASE / ASPARTATE AMINOTRANSFERASE / BLOOD UREA NITROGEN / CARBON DIOXIDE / CHLORIDE / CHOLESTEROL / CREATINE PHOSPHOKINASE / CREATININE / GLUCOSE / LACTATE DEHYDROGENASE / LIPASE / POTASSIUM / SODIUM / TOTAL BILIRUBIN / TOTAL PROTEIN: tissue Plasma
[1] = 0 mg/kg, 72 h, dose level Control, time 3 day
[2] = 0 mg/kg, 120 h, dose level Control, time 5 day
[3] = 150 mg/kg, 72 h, dose level Low, time 3 day

## C[C@@H]1CC[C@H]2[C@@H](C)C(=O)O[C@@H]3O[C@@]4(C)CC[C@@H]1[C@]32OO4 [ARTEMISININ]
[1]
  ABSOLUTE BASOPHIL: 0 CELLS/uL
  ABSOLUTE EOSINOPHIL: 171.33 CELLS/uL
  ABSOLUTE LYMPHOCYTE: 13776.5 CELLS/uL
  ABSOLUTE MONOCYTE: 180.83 CELLS/uL
  ABSOLUTE SEGMENTED NEUTROPHIL: 1121.33 CELLS/uL
  BASOPHIL: 0%
  EOSINOPHIL: 1%
  ERYTHROCYTE COUNT: 5.56 x10E6/uL
  HEMATOCRIT: 34.75%
  HEMOGLOBIN: 13.68 G/DL
  LEUKOCYTE COUNT: 15.25 x10E3/uL
  LYMPHOCYTE: 90.17%
  MEAN CORPUSCULAR HEMOGLOBIN: 24.6 pg
  MEAN CORPUSCULAR HEMOGLOBIN CONCENTRATION: 39.4 G/DL
  MEAN CORPUSCULAR VOLUME: 62.48 fL
  MONOCYTE: 1.17%
  NEUTROPHIL: 7.67%
  NUCLEATED RED BLOOD CELLS: 0 /100WBC
  PLATELET COUNT: 1342 x10E3/uL
  ALANINE AMINOTRANSFERASE: 49.67 u/L
  ALBUMIN: 4.15 G/DL
  ALKALINE PHOSPHATASE: 346.83 u/L
  ASPARTATE AMINOTRANSFERASE: 108.17 u/L
  BLOOD UREA NITROGEN: 17.33 mg/dL
  CARBON DIOXIDE: 25 mmol/L
  CHLORIDE: 100.83 MEQ/L
  CHOLESTEROL: 66.83 mg/dL
  CREATINE PHOSPHOKINASE: 788 u/L
  CREATININE: 0.18 mg/dL
  GLUCOSE: 151.67 mg/dL
  LACTATE DEHYDROGENASE: 982.5 u/L
  LIPASE: 10.33 u/L
  POTASSIUM: 6.37 MEQ/L
  SODIUM: 141.02 MEQ/L
  TOTAL BILIRUBIN: 0.18 mg/dL
  TOTAL PROTEIN: 5.9 G/DL
[2]
  ABSOLUTE BASOPHIL: 0 CELLS/uL
  ABSOLUTE EOSINOPHIL: 69 CELLS/uL
  ABSOLUTE LYMPHOCYTE: 13632.83 CELLS/uL
  ABSOLUTE MONOCYTE: 139.83 CELLS/uL
  ABSOLUTE SEGMENTED NEUTROPHIL: 1225 CELLS/uL
  BASOPHIL: 0%
  EOSINOPHIL: 0.33%
  ERYTHROCYTE COUNT: 5.52 x10E6/uL
  HEMATOCRIT: 33.98%
  HEMOGLOBIN: 13.22 G/DL
  LEUKOCYTE COUNT: 15.07 x10E3/uL
  LYMPHOCYTE: 90.83%
  MEAN CORPUSCULAR HEMOGLOBIN: 23.95 pg
  MEAN CORPUSCULAR HEMOGLOBIN CONCENTRATION: 38.9 G/DL
  MEAN CORPUSCULAR VOLUME: 61.53 fL
  MONOCYTE: 0.83%
  NEUTROPHIL: 8%
  NUCLEATED RED BLOOD CELLS: 0 /100WBC
  PLATELET COUNT: 1196 x10E3/uL
  ALANINE AMINOTRANSFERASE: 49.17 u/L
  ALBUMIN: 4.2 G/DL
  ALKALINE PHOSPHATASE: 352.33 u/L
  ASPARTATE AMINOTRANSFERASE: 89.67 u/L
  BLOOD UREA NITROGEN: 18 mg/dL
  CARBON DIOXIDE: 27.67 mmol/L
  CHLORIDE: 101 MEQ/L
  CHOLESTEROL: 72.83 mg/dL
  CREATINE PHOSPHOKINASE: 417.5 u/L
  CREATININE: 0.18 mg/dL
  GLUCOSE: 150.5 mg/dL
  LACTATE DEHYDROGENASE: 517.33 u/L
  LIPASE: 9 u/L
  POTASSIUM: 6.57 MEQ/L
  SODIUM: 143.62 MEQ/L
  TOTAL BILIRUBIN: 0.2 mg/dL
  TOTAL PROTEIN: 6.08 G/DL
[3]
  ABSOLUTE BASOPHIL: 0 CELLS/uL
  ABSOLUTE EOSINOPHIL: 206 CELLS/uL
  ABSOLUTE LYMPHOCYTE: 10521.33 CELLS/uL
  ABSOLUTE MONOCYTE: 315 CELLS/uL
  ABSOLUTE SEGMENTED NEUTROPHIL: 957.67 CELLS/uL
  BASOPHIL: 0%
  EOSINOPHIL: 1.67%
  ERYTHROCYTE COUNT: 6.1 x10E6/uL
  HEMATOCRIT: 36.63%
  HEMOGLOBIN: 13.77 G/DL
  LEUKOCYTE COUNT: 12 x10E3/uL
  LYMPHOCYTE: 87.67%
  MEAN CORPUSCULAR HEMOGLOBIN: 22.63 pg
  MEAN CORPUSCULAR HEMOGLOBIN CONCENTRATION: 37.6 G/DL
  MEAN CORPUSCULAR VOLUME: 60.1 fL
  MONOCYTE: 2.67%
  NEUTROPHIL: 8%
  NUCLEATED RED BLOOD CELLS: 0 /100WBC
  PLATELET COUNT: 1362.67 x10E3/uL
  ALANINE AMINOTRANSFERASE: 38 u/L
  ALBUMIN: 4.53 G/DL
  ALKALINE PHOSPHATASE: 347.67 u/L
  ASPARTATE AMINOTRANSFERASE: 86.67 u/L
  BLOOD UREA NITROGEN: 22 mg/dL
  CARBON DIOXIDE: 25.33 mmol/L
  CHLORIDE: 104.33 MEQ/L
  CHOLESTEROL: 87.67 mg/dL
  CREATINE PHOSPHOKINASE: 336.33 u/L
  CREATININE: 0.24 mg/dL
  GLUCOSE: 145.67 mg/dL
  LACTATE DEHYDROGENASE: 459.33 u/L
  LIPASE: 11 u/L
  POTASSIUM: 6.03 MEQ/L
  SODIUM: 146.83 MEQ/L
  TOTAL BILIRUBIN: 0.13 mg/dL
